Measured values reported in ChEMBL document CHEMBL3988442, “University of Dundee, Small-Polar-MMV Screening Library” (2021).

Tested on: Schistosoma mansoni
Experiment: High throughput screening of compounds against Schistosoma mansoni motility
Format: functional
Set-up: dose or concentration left out as unconfirmed

Structure (SMILES) | Percent Effect [%]
O=C(CSc1nc2c(cnn2CCO)c(=O)[nH]1)N1CCCCCC1 | -11.33
Oc1ccc(N2CCN(Cc3cc4c(cc3Br)OCCO4)CC2)cc1 | -18.88
COCC(O)CNC(=O)c1coc(COc2ccc3sc(C)nc3c2)n1 (stereo not given) | 22.1
CC(C)(C)C(=O)NCCC(=O)NS(=O)(=O)c1ccc2c(c1)OCCO2 | -42.92
O=C(NCC1(CO)CC1)c1cccc2ccccc12 | -62.45
COC(=O)c1ccc2ccn(CC3CCNC3)c(=O)c2c1 (stereo not given) | -40.15
O=C(CSc1ccncc1)N1C[C@H]2CC[C@@H]1CN(Cc1cccnc1)C2 | -27.79
Nc1cc(CCCNC(=O)NC2CC2)nn1-c1ccccc1 | -35.32
O=C(c1cccc(S(=O)(=O)NCCCc2ncc[nH]2)c1)N1CCOCC1 | -82.46
CCc1ccc(C(=O)N2CCCC(n3cncn3)C2)o1 (stereo not given) | -35.91
COc1cccc2c1OCC(C(=O)N(C)CCCc1cnn(C)c1)C2 (stereo not given) | -37.39
CNC(=O)CSc1cnn(CC(=O)Nc2cccc(Cl)c2C)c(=O)c1Cl | -12.29
COC(=O)c1sccc1S(=O)(=O)N1CCC(Oc2cccnn2)CC1 | -55.3
Cc1nc(C)n(CC2CCCN(CCc3ccncc3)C2)n1 (stereo not given) | -44.91
OC1CCN(Cc2cc3c(cc2Br)OCCO3)CC1 | 8.478
Cc1cccc(CS(=O)(=O)NCC(O)Cc2ccccc2)c1 (stereo not given) | 8.547
Cc1ncc(-c2nc3cc(S(=O)(=O)N4CCCC4)ccc3n2C)cn1 | -72.39
Cc1cc(C)n(CC2CCCN2C(=O)c2ccc3[nH]nnc3c2)n1 (stereo not given) | -6.294
Cc1ncc(CNC(=O)Nc2cc(C(F)(F)F)c[nH]c2=O)s1 | -39.38
CC(C)(C)c1cc(CN2CC[C@@H](NC(=O)c3cccnc3)[C@H](O)C2)n[nH]1 | -5.341
Cc1ccc(N2CCN(C(=O)COc3nccc(C)n3)CC2)nn1 | -46.68
CC(=O)N1CCC(Oc2ccc(C#N)cn2)CC1 | -36.18

Structure (SMILES) | Percent Effect [%]
Cn1cc(CCNC(=O)NC2CCS(=O)(=O)C2)cn1 (stereo not given) | -23.41
Cc1cnn(CC(C)NCc2nc(-c3cccnc3)no2)c1 (stereo not given) | -19.9
CCCN1CCCn2nc(CNC(=O)CCc3scnc3C)cc2C1 | 25.43
CCC1CN(C(=O)c2ccc(=O)[nH]c2)CCC(=O)N1Cc1ccccc1 (stereo not given) | -27.12
CNC(=O)CS(=O)(=O)C1CCN(S(=O)(=O)c2ccccc2Br)CC1 | -49.15
CCn1c(N)nc2cc(C(=O)NCCc3sccc3C)cnc21 | -77.79
CSC(C)C(=O)NCCCc1cc(N)n(-c2ccccc2)n1 (stereo not given) | -59.95
O=C(NCC(F)F)N1CCC(n2ccc(C(F)(F)F)n2)CC1 | -27.04
Cc1csc(N2CCN(Cc3cnc(C)s3)CC2C)n1 (stereo not given) | -30.28
Cc1nc(C(C)(C)NC(=O)Nc2ccccc2)no1 | -55.91
Cc1cc(CC(=O)N2CCCC2c2nc(C(C)C)no2)on1 (stereo not given) | -26.98
Cn1cc(CCC(=O)N2C[C@H]3CC[C@@H]2CN(Cc2ccccc2)C3)cn1 | -38.92
O=C(c1cc(Cl)cc(Cl)c1)N1CCN(c2nccs2)CC1 | -19.81
Cc1nc[nH]c1CN1C[C@@H]2CC[C@H](C1)N(C(=O)CCNS(C)(=O)=O)C2 | 1.774
COc1ccccc1OCc1cc(C(=O)N2C[C@H](O)[C@@H](N(C)C)C2)n[nH]1 | -29.56
CS(=O)(=O)N1CCc2nc(NC(=O)Nc3c(F)cccc3F)sc2C1 | -37.65
CNC(=O)CS(=O)(=O)C1CCN(S(=O)(=O)c2c(F)cccc2F)CC1 | -27.81
CN(C)Cc1nnc(C2CCN(c3nccc(N)n3)CC2)n1C1CC1 | -22.89
CC1CCN(S(=O)(=O)c2cccn(CC(=O)NC3CCCC3)c2=O)CC1 | -45
CN(CCN1CCCCC1)C(=O)c1cc(CN2CCOCC2)on1 | -21.55
CCOCCC(=O)N1CCCC(c2ncc[nH]2)C1 (stereo not given) | -61.02
CCN1CC(C(=O)NCc2ccnc(-n3ccnc3C)c2)CC1=O (stereo not given) | -29.1

Structure (SMILES) | Percent Effect [%]
O=C(c1ccccn1)N1CCCC(c2nccn2CC2CCC2)C1 (stereo not given) | -9.087
CN(C)S(=O)(=O)N1CCN(c2nccc(C(F)(F)F)n2)CC1 | -52.05
Cc1cccnc1NC(=O)CSc1ccc2c(c1)OCCO2 | -40.06
O[C@H]1[C@H](n2cc(-c3cccnc3)nn2)c2ccccc2C12CCNCC2 | -35.88
O=C(NS(=O)(=O)c1cc(Cl)sc1Cl)c1cccc2c1OCCO2 | -35.56
CSCC(CCO)NC(=O)Nc1cccc(Br)c1 (stereo not given) | -21.75
Cc1ccccc1N1CCCN(C(=O)CCCS(N)(=O)=O)CC1 | -57.21
COCCN1CCC(CN(CC2CCCO2)C(=O)CCNC(C)=O)CC1 (stereo not given) | -20.27
CCCc1n[nH]c(C2CN(CCn3cccn3)CCO2)n1 (stereo not given) | 4.257
O=C(c1ccc[nH]1)N1CCC(c2nccn2Cc2ccncc2)CC1 | -12.18
CC(=O)NCCN1CCC(c2cccs2)CC1 | -65.41
Cc1ccsc1[C@@H]1CCN(C(=O)CCC(=O)N2CCCCCC2)C[C@H]1O | -14.8
O=C1NCCCCC1Sc1nnc(C2CC2)n1C1CC1 (stereo not given) | -44.06
CCC(CC)c1cc(C(=O)N2CCCC(n3cncn3)C2)on1 (stereo not given) | 1.073
CCN1CCN(S(=O)(=O)c2ncn(C)c2Cl)CC1 | -72.02
COc1ccccc1OCc1cc(C(=O)N2CC=CC2C(C)C)n[nH]1 (stereo not given) | -26.69
Cc1cc(C[C@@H]2COC[C@@H]2NC(=O)CN2CCCN(C)CC2)on1 | -19.51
CC(C)NC(=O)c1nnn(-c2cccc(C(F)(F)F)c2)c1N | 32.01
COc1ccc(NC(C)C(=O)NCCc2cccs2)cc1F (stereo not given) | -15.23
CSCCC(=O)N1CCC(Oc2cc(C)ccc2F)(C(=O)O)CC1 | 12.24
CC(NC(=O)C1=NN(C)C(=O)CC1)c1ccc(F)cc1F (stereo not given) | -36.47
O=C(NCCN1CCC(c2cccs2)CC1)c1ccccc1C(F)(F)F | 2.003

Structure (SMILES) | Percent Effect [%]
COCCN(Cc1ccc(F)cc1Cl)C(=O)c1cccc[n+]1[O-] | -17.57
CC(=O)N1CCC(Oc2ccc(Cl)cn2)CC1 | -33.97
Cc1nc(C(C)(C)NC(=O)Nc2cccc(C#N)c2)no1 | -35.79
COc1cccc(S(=O)(=O)NC2CNC(=O)C2)c1 (stereo not given) | -3.901
Cc1nc2ccccn2c1CN(Cc1cccnc1)CC1CCCO1 (stereo not given) | -47.66
CC(C)COC(C)C(=O)N1CCN(S(C)(=O)=O)CC1 (stereo not given) | -53.15
CCOc1cc(C)nc(N2CCN(Cc3nccn3C)CC2)n1 | -40.52
CCc1nnc2n1CCN(Cc1csc(-c3cnn(C)c3)n1)C2 | -30.99
CC(C)(CO)NC(=O)C1CCC(=O)N(Cc2ccc(Cl)cc2)C1 (stereo not given) | -0.822
CC(CN1CCOCC1)NCc1nncn1C1CCCCC1 (stereo not given) | 0.8698
COCCN1CCN(C(=O)c2cc(C(C)C)on2)[C@H]2CS(=O)(=O)C[C@H]21 | 3.129
Cc1nn(C)c(C)c1C1COCCN1C(=O)Cc1cccc(F)c1 (stereo not given) | -11.98
OCC1CCCN1c1cc(NCCNc2ccccn2)ncn1 (stereo not given) | -56.18
CCc1cc(NC2CCN(S(C)(=O)=O)CC2)n2nc(C)c(C)c2n1 | -49.44
CN(C(=O)Cn1nc(-c2ccc(F)cc2)oc1=O)C1CCS(=O)(=O)C1 (stereo not given) | -46.67
CCn1nc(CC(C)C)cc1C(=O)NCCCOC | -69.66
Cc1n[nH]c(C2CN(CC(=O)NCCc3ccsc3)CCO2)n1 (stereo not given) | -117.4
CC(C)(C(=O)NCC(N)=O)c1ccccc1F | 10.05
O=C(c1ccccn1)N1CCCC(c2nccn2Cc2ccncc2)C1 (stereo not given) | -73.06
CCCNC(=O)Cn1nc(C(C)C)c2cnn(C(C)(C)C)c2c1=O | -27.62
O=C(CCCc1cn[nH]c1)N1CCOCC(O)C1 (stereo not given) | -19.59
Cn1ncc2c(N3CCN(C(N)=O)CC3)nc(C3CCCC3)nc21 | -18.38

Structure (SMILES) | Percent Effect [%]
O[C@H]1[C@H](n2cc(-c3ccccc3)nn2)c2ccccc2C12CCNCC2 | 3.648
O=C(CCc1ccsc1)N1CCC(Cc2ccc(CO)cc2)C1 (stereo not given) | 6.677
O=C(NCC(Cc1cccc(F)c1)N1CCCC1=O)c1cnccn1 (stereo not given) | 3.976
CCOc1ncccc1NC(=O)c1sccc1C | -42.63
Cl.O=C(Cc1ccc(F)cc1)N1CCN(CC(O)C2CC2)CC1 (stereo not given) | -44.17
CC(C1CC1)N(C(=O)NCCCn1nc2ccccn2c1=O)C1CC1 (stereo not given) | -46.88
Cn1cnnc1S(=O)(=O)C1CCN(S(=O)(=O)c2ccc(F)c(Cl)c2)CC1 | -43.49
CN1CCN(Cc2nnc(C3CCN(CC4CC4)CC3)n2C)CC1 | -64.34
O=C(CCc1ccccc1)C1CCCN(C(=O)c2ncc(F)cc2F)C1 (stereo not given) | -32.14
Cc1cccc(C(=O)N2CCN(S(C)(=O)=O)[C@@H](C)C2)c1C | -56.44
Cc1cncc(C(=O)N2CCCC(C(=O)CCc3ccccc3)C2)c1 (stereo not given) | -9.118
CCCc1cc(NC2CCc3ncnn3C2)n2ncnc2n1 (stereo not given) | -6.308
O=c1nc(SCc2cccnc2)c2c(n1CCO)CCC2 | -102.8
Cc1noc(-c2ccc(N3CCCC(C(=O)N4CCSCC4)C3)nc2)n1 (stereo not given) | 26.74
CC(C)C(=O)N1CCN(C(=O)c2cscn2)[C@H]2CS(=O)(=O)C[C@H]21 | -16.72
Cn1nnc2cc(C(=O)N3CCCC3Cc3ccccc3)ccc21 (stereo not given) | -37.55
COCc1cn([C@@H]2c3ccccc3C3(CCNCC3)[C@H]2O)nn1 | -22.09
COc1nc2c(cc1C(=O)N1C[C@H](N)C[C@H]1C(=O)NC(C)C)CCC2 | 37.99
Cc1cnc(C(=O)N(CCN(C)C)Cc2ccc(Cl)cc2)cn1 | 17.37
CCc1nc(CN2CCCC(N(C)Cc3cnc(C)s3)C2)no1 (stereo not given) | 23.33
O=C(CCCc1ccc(F)cc1)N1C[C@@H](CN2CCOCC2)[C@@H](CO)C1 | -22.43
COc1ccccc1OCC(=O)Nc1ncccc1OC(F)F | 13.82
